Data: patent publication US20260199239A1, “IONIZABLE LIPIDS WITH MALONATE TAILS” (ModernaTX, Inc., priority 2022, published 2026)

Key:
[1] = Osmolality of LNP formulation; assay type: physicochemical; details: LNP formulation in 20 mM Tris 8% Sucrose storage buffer
Text: (§1) LNPs comprising ionizable lipids described herein were formulated according to Table 2 and the following general procedure.

[2] = LNP particle size and polydispersity index (PDI); assay type: physicochemical; details: LNP lipid:PEG-1:DSPC:Cholesterol 48:2:11:39, hEPO mRNA, 20 mM Tris 8% Sucrose pH 7.4
Description: A Zetasizer Nano ZS (Malvern Instruments Ltd, Malvern, Worcestershire, UK) can be used to determine the particle size, the polydispersity index (PDI) and the zeta potential of the nanoparticle compositions in 1×PBS in determining particle size and 15 mM PBS in determining zeta potential.
LNPs may be characterized by a variety of methods. For example, microscopy (e.g., transmission electron microscopy or scanning electron microscopy) may be used to examine the morphology and size distribution of a nanoparticle composition. Dynamic light scattering or potentiometry (e.g., potentiometric titrations) may be used to measure zeta potentials. Dynamic light scattering may also be utilized to determine particle sizes. Instruments such as the Zetasizer Nano ZS (Malvern Instruments Ltd, Malvern, Worcestershire, UK) may also be used to measure multiple characteristics of a nanoparticle composition, such as particle size, polydispersity index, and zeta potential.
as §1
(§2) General procedure for one-pot LNP formation: Lipid stock solutions in ethanol are mixed with mRNA in 25 mM acetate solution at a 3:1 ratio in a microfluidic mixer. The resulting LNPs, which are at approximately pH 5 and 25% EtOH, are buffer exchanged by dialysis into the storage buffer. The LNP solutions are then concentrated by Amicon® and purified by a 0.2 uM sterile filter.

[3] = pH of LNP formulation; assay type: physicochemical; details: LNP formulation in 20 mM Tris 8% Sucrose storage buffer
Text: as §1

[4] = Endotoxin content of LNP formulation; details: LNP lipid:PEG-1:DSPC:Cholesterol 48:2:11:39, hEPO mRNA
Text: as §1

[5] = mRNA encapsulation by the LNP (% EE, total mRNA in TX); assay type: physicochemical; details: LNP lipid:PEG-1:DSPC:Cholesterol 48:2:11:39, hEPO mRNA
Description: For nanoparticle compositions including an RNA, a QUANT-IT™ RIBOGREEN® RNA assay (Invitrogen Corporation Carlsbad, CA) can be used to evaluate the encapsulation of an RNA by the nanoparticle composition. The samples are diluted to a concentration of approximately 5 μg/mL in a TE buffer solution (10 mM Tris-HCl, 1 mM EDTA, pH 7.5). 50 μL of the diluted samples are transferred to a polystyrene 96 well plate and either 50 μL of TE buffer or 50 μL of a 2% Triton X-100 solution is added to the wells. The plate is incubated at a temperature of 37° C. for 15 minutes. The RIBOGREEN® reagent is diluted 1:100 in TE buffer, and 100 μL of this solution is added to each well. The fluorescence intensity can be measured using a fluorescence plate reader (Wallac Victor 1420 Multilablel Counter; Perkin Elmer, Waltham, MA) at an excitation wavelength of, for example, about 480 nm and an emission wavelength of, for example, about 520 nm. The fluorescence values of the reagent blank are subtracted from that of each of the samples and the percentage of free RNA is determined by dividing the fluorescence intensity of the intact sample (without addition of Triton X-100) by the fluorescence value of the disrupted sample (caused by the addition of Triton X-100).
The efficiency of encapsulation of a therapeutic and/or prophylactic agent describes the amount of therapeutic and/or prophylactic agent that is encapsulated or otherwise associated with an LNP after preparation, relative to the initial amount provided. The encapsulation efficiency is desired to be high (e.g., close to 100%). The encapsulation efficiency may be measured, for example, by comparing the amount of therapeutic and/or prophylactic agent in a solution containing a loaded LNP before and after breaking up the loaded LNP with one or more organic solvents or detergents. Fluorescence may be used to measure the amount of free therapeutic and/or prophylactic agent (e.g., RNA) in a solution. For the loaded LNPs formulated with lipids of the disclosure, the encapsulation efficiency of a therapeutic and/or prophylactic agent is at least 50%, for example 50%, 55%, 60%, 65%, 70%, 75%, 80%, 85%, 90%, 91%, 92%, 93%, 94%, 95%, 96%, 97%, 98%, 99%, or 100%. In some embodiments, the encapsulation efficiency is at least 80%. In some embodiments, the encapsulation efficiency is at least 90%. In some embodiments, the encapsulation efficiency of the therapeutic and/or prophylactic agent is between 80% and 100%.
as §1, §2

[6] = tested on: hEPO protein expression; experiment: hEPO protein expression in vivo after systemic administration of LNPs; details: Table 3B groups 1A-8A, ratio to L5 LNP
Description: In order to monitor how effectively various nanoparticle compositions deliver therapeutic and/or prophylactic agents to targeted cells, different nanoparticle compositions including a particular therapeutic and/or prophylactic agent (for example, a modified or naturally occurring RNA such as an mRNA) are prepared and administered to animal populations. Animals (e.g., mice, rats, or non-human primates) are intravenously, intramuscularly, intraarterially, or intratumorally administered a single dose including a nanoparticle composition comprising a lipid of the disclosure and an mRNA expressing a protein, e.g., human erythropoietin (hEPO) or luciferase. A control composition including PBS may also be employed.
Upon administration of nanoparticle compositions to an animal, dose delivery profiles, dose responses, and toxicity of particular formulations and doses thereof can be measured by enzyme-linked immunosorbent assays (ELISA), bioluminescent imaging, or other methods. For nanoparticle compositions including mRNA, time courses of protein expression can also be evaluated. Samples collected from the animals for evaluation may include blood, sera, and tissue (for example, muscle tissue from the site of an intramuscular injection and internal tissue); sample collection may involve sacrifice of the animals.
ELISA test kits may provide hEPO concentrations in milli International Units per mL (mIU/mL), e.g., per mL of tested serum. Typically, the EPO concentration of unknown sample is calculated from a calibration curve. Standards (used for the calibration curve) are calibrated according to the 2. IRP WHO preparation. In some embodiments, mIU/mL corresponds to […]. Nanoparticle compositions including mRNA are useful in the evaluation of the efficacy and usefulness of various formulations for the delivery of therapeutic and/or prophylactic agents. Higher levels of protein expression induced by administration of a composition including an mRNA will be indicative of higher mRNA translation and/or nanoparticle composition mRNA delivery efficiencies. As the non-RNA components are not thought to affect translational machineries themselves, a higher level of protein expression is likely indicative of a higher efficiency of delivery of the therapeutic and/or prophylactic agent by a given nanoparticle composition relative to other nanoparticle compositions or the absence thereof.
In some embodiments, an in vivo expression assay may be used to assess potency of expression of lipids of the disclosure. In some embodiments, the protein expression (hEPO) may be measured in mice following administration of a nanoparticle comprising a lipid of the disclosure (e.g., a loaded LNP). In some embodiments, lipid nanoparticles of the instant disclosure may be intravenously administered to mice (e.g., CD-1 mice).
In some embodiments, the concentration of hEPO in serum may be tested after administration (e.g., about six hours after injection). In some embodiments, residual levels of the lipids of the disclosure in organs or tissue of the subject after administration (e.g., 6 h, 12 h, 18 h, 24 h, 36h, or 48 h after administration) are measured. In some embodiments, the residual levels of the lipids of the disclosure in the liver are measured. In some embodiments, an in vitro expression assay may be used to assess nanoparticles of the disclosure. In some embodiments, cells (e.g., HeLa) may be plated in an imaging plate (e.g., poly-D-lysine coated) and cultured in serum (e.g., human serum, mouse serum, cynomolgus monkey serum or fetal bovine serum). In some embodiments, lipid nanoparticles of the disclosure comprising an mRNA expressing fluorescent protein (e.g., green fluorescent protein (GFP)) and a fluorescent lipid (e.g., rhodamine-DOPE) may be added to the plate and the plate imaged for uptake and expression. In some embodiments, expression may be evaluated by measuring fluorescence (e.g., from GFP). […]

CCCCCCCCC(CCCCCCCC)OC(=O)CCCCCCCN(CCCCCCC(C(=O)OCCCCCC)C(=O)OCCCCCC)CCCNC(C)=O [Compound M4, Dihexyl 2-(6-((3-acetamidopropyl)(8-(heptadecan-9-yloxy)-8-oxooctyl)amino)hexyl)malonate]
Osmolality (mOsm/kg) [1]: 321 mOsm/kg | PDI [2]: 0.099 | Size (nm) [2]: 68.7 nm | pH [3]: 7.450 | Endotoxin (EU/mL) [4]: 2.6 EU/mL | % EE [5]: 92.2% | 6 hr protein expression ratio cf. L5 [6]: 0.34 | 24 hr protein expression ratio cf. L5 [6]: 0.36

CCCCCCCCC(CCCCCCCC)OC(=O)CCCCCCCN(CCCCCCC(C(=O)OCCCCCC)C(=O)OCCCCCC)CCCNC(=O)C1CC1 [Compound M6, Dihexyl 2-(6-((3-(cyclopropanecarboxamido)propyl)(8-(heptadecan-9-yloxy)-8-oxooctyl)amino)hexyl)malonate]
Osmolality (mOsm/kg) [1]: 317 mOsm/kg | PDI [2]: 0.418 | Size (nm) [2]: 104.9 nm | pH [3]: 7.450 | Endotoxin (EU/mL) [4]: <2 EU/mL | % EE [5]: 67.8% | 6 hr protein expression ratio cf. L5 [6]: 0.82 | 24 hr protein expression ratio cf. L5 [6]: 0.81
